# Assay results published in patent publication EP1206258B1, “COMPOSITIONS CONTAINING ESTERS FOR TREATING PARASITIC INFESTATIONS OF ORGANISMS” (priority 1999, dated 2001).
# How the values were obtained:
# Acarus siro [1] = assay: residual filter paper bioassay on Acarus siro (Table 2a)
# Description: The effect of trans-cinnamic acid ethyl ester on the mite Acarus siro was investigated using a residual filter paper bioassay. Seven samples of 0.01g of mite culture was placed on 7, 90mm Whatman™ filter papers. Each paper was previously treated with 745µl of a solution containing trans-cinnamic acid ethyl ester at concentrations varying from 74.64µl to 7.64 x 10^-4 µl/petri dish respectively and allowed to dry for 15 minutes. The controls were treated in the same way except ethanol (HPLC grade) was used as this was sample dilutant. Percentage control was calculated as in W.S. Abbot, A Method of Computing the Effectiveness of an Insecticide, Journal of Economic Entomology (1925) 18, 265-267.
# Acarus siro [2] = assay: further residual filter paper bioassay on grain/flour mite Acarus siro (Table 2b); details: for % mortality: ethanol control 24.00
# Description: A further study was carried out to investigate the effect of Ethyl cinnamate on the grain/flour mite Acarus siro using a residual filter paper bioassay. Mites from a colony grown at 25°C ± 85% RH were removed using a spatular and placed into a petri dish. 275 µ of the cinnamate was placed onto a filter paper in one well of a 6 well (17 ml) cell culture plate and likewise, 275 µ of DH2O was placed on another piece of 4 cm Whatman filter paper in a second well. Mixed instars (male + female) were added to each well. The actual number of instars was unknown in each case, since the test only sought to establish the presence of activity; measured in terms of cidal effect (knockdown). The duration of the test was 5 ± days. Both treatments were incubated at 25°C ± 85% RH and each well was checked 4 times daily. Small amounts of food mix of yeastea 20B and wheat germ in the ratio 3 : 1 were included on the filter paper in both treatments.
# The treatment was later modified : 2, 10 cm Whatman filter papers were cut to ø of 3 cm and placed in the mite culture. After 10 minutes they were removed using forceps. The mites were then swept into each well respective of treatment. The cinnamate provided too glutenous (viscous) to be used undiluted. Therefore, it was dissolved using 10 fold dilutions in ethanol. Therefore 30 µ cinnamate : 270 µ ethanol to the extent of 10-4. The control was ethanol.
# The above experiment was repeated.
# Fusarium culmorum = assay: growth inhibition test on SAB agar, F. culmorum; assay type: cell-based
# Description: The antifungal activity of ethyl trans-cinnamate against a number of different fungi was investigated by means of in a simple growth inhibition test.
# The following quantities of Ethyl trans-Cinnamate were added to Sabourand Dextrose agar (SAB); 50 ml L^-1, 4ml L^-1, 2ml L^-1, 1ml L^-1, 400 µl L^-1, 200 µl L^-1 and 40 µl L^-1. […] These were then autoclaved and poured into standard Petri dishes. […] Duplicate plates of each concentration, plus control plates containing only SAB Agar, where then separately inoculated with, four different species of fungi, these were Aspergillus nidulans, Penicillium digitatum, Rhizopus arrhizus and Fusarium culmorum. Inoculation was carried out using a single stab at the centre of each Petri dish. The plates were then incubated at 30°C for 6 days and daily measurements of mycobial growth where taken every 24 hours.
# Rabbit = details: Dermal, FRMM; cited from earlier work
# human volunteers = details: 24 hour closed-patch test, 25 human volunteers (Kligman 1973); cited from earlier work
# mealworms, T.molibr = assay: filter paper treatment of mealworms; details: 5 mealworms
# From the text: Additionally, it was also noted that Ethyl cinnamate is toxic to insects, at least mealworms, T.molibr. […] 5 mealworms were placed onto each filter paper treatment. Although all were of the same instar, the 10-1 individuals were slightly larger. […] 10-7 did die. Therefore, the size of larvae appears to be important.
smiles,measurement,setting,value
CCOC(=O)/C=C/c1ccccc1 [trans-cinnamic acid ethyl ester],percentage control figure,Acarus siro [1]; 7.64µl/petri dish,100%
same,Mean Percentage Mortality Over Control,Acarus siro [1]; Concentration (µl) 3.20,95.57
same,Mean Percentage Mortality Over Control,Acarus siro [1]; Concentration (µl) 3.20 x 10^1,100.00
same,Mean Percentage Mortality Over Control,Acarus siro [1]; Concentration (µl) 3.20 x 10^-1,97.74
same,Mean Percentage Mortality Over Control,Acarus siro [1]; Concentration (µl) 3.20 x 10^-2,69.51
same,Mean Percentage Mortality Over Control,Acarus siro [1]; Concentration (µl) 3.20 x 10^-3,32.95
same,Mean Percentage Mortality Over Control,Acarus siro [1]; Concentration (µl) 3.20 x 10^-4,6.33
same,% mortality,Acarus siro [2]; Concentration 10-1 (dilution in ethanol),100.00%
same,% mortality,Acarus siro [2]; Concentration 10-2 (dilution in ethanol),100.00%
same,% mortality,Acarus siro [2]; Concentration 10-3 (dilution in ethanol),98.40%
same,% mortality,Acarus siro [2]; Concentration 10-4 (dilution in ethanol),86.00%
same,time to 100% mortality,"Acarus siro [2]; undiluted dose, approximately",less than 15 minutes
same,Level of Radial Growth (mm) of F. culmorum,"Fusarium culmorum; 1ml L^-1, Day 1",0 mm
same,Level of Radial Growth (mm) of F. culmorum,"Fusarium culmorum; 1ml L^-1, Day 2",0 mm
same,Level of Radial Growth (mm) of F. culmorum,"Fusarium culmorum; 1ml L^-1, Day 3",0 mm
same,Level of Radial Growth (mm) of F. culmorum,"Fusarium culmorum; 1ml L^-1, Day 4",0 mm
same,Level of Radial Growth (mm) of F. culmorum,"Fusarium culmorum; 1ml L^-1, Day 5",0 mm
same,Level of Radial Growth (mm) of F. culmorum,"Fusarium culmorum; 1ml L^-1, Day 6",0 mm
same,Level of Radial Growth (mm) of F. culmorum,"Fusarium culmorum; 2ml L^-1, Day 1",0 mm
same,Level of Radial Growth (mm) of F. culmorum,"Fusarium culmorum; 2ml L^-1, Day 2",0 mm
same,Level of Radial Growth (mm) of F. culmorum,"Fusarium culmorum; 2ml L^-1, Day 3",0 mm
same,Level of Radial Growth (mm) of F. culmorum,"Fusarium culmorum; 2ml L^-1, Day 4",0 mm
same,Level of Radial Growth (mm) of F. culmorum,"Fusarium culmorum; 2ml L^-1, Day 5",0 mm
same,Level of Radial Growth (mm) of F. culmorum,"Fusarium culmorum; 2ml L^-1, Day 6",0 mm
same,Level of Radial Growth (mm) of F. culmorum,"Fusarium culmorum; 4ml L^-1, Day 1",0 mm
same,Level of Radial Growth (mm) of F. culmorum,"Fusarium culmorum; 4ml L^-1, Day 2",0 mm
same,Level of Radial Growth (mm) of F. culmorum,"Fusarium culmorum; 4ml L^-1, Day 3",0 mm
same,Level of Radial Growth (mm) of F. culmorum,"Fusarium culmorum; 4ml L^-1, Day 4",0 mm
same,Level of Radial Growth (mm) of F. culmorum,"Fusarium culmorum; 4ml L^-1, Day 5",0 mm
same,Level of Radial Growth (mm) of F. culmorum,"Fusarium culmorum; 4ml L^-1, Day 6",0 mm
same,Level of Radial Growth (mm) of F. culmorum,"Fusarium culmorum; 40µl L^-1, Day 1",0 mm
same,Level of Radial Growth (mm) of F. culmorum,"Fusarium culmorum; 40µl L^-1, Day 2",0 mm
same,Level of Radial Growth (mm) of F. culmorum,"Fusarium culmorum; 40µl L^-1, Day 3",1 mm
same,Level of Radial Growth (mm) of F. culmorum,"Fusarium culmorum; 40µl L^-1, Day 4",1 mm
same,Level of Radial Growth (mm) of F. culmorum,"Fusarium culmorum; 40µl L^-1, Day 5",2 mm
same,Level of Radial Growth (mm) of F. culmorum,"Fusarium culmorum; 40µl L^-1, Day 6",6 mm
same,duration of complete inhibition of growth,"Fusarium culmorum; 50ml L-^1 and higher doses, further experiments, data not shown",at least 8 days
same,inhibition of growth,Fusarium culmorum; 50ml L-^1 level,complete inhibition of growth
same,Level of Radial Growth (mm) of F. culmorum,"Fusarium culmorum; 50 ml L^-1, Day 1",0 mm
same,Level of Radial Growth (mm) of F. culmorum,"Fusarium culmorum; 50 ml L^-1, Day 2",0 mm
same,Level of Radial Growth (mm) of F. culmorum,"Fusarium culmorum; 50 ml L^-1, Day 3",0 mm
same,Level of Radial Growth (mm) of F. culmorum,"Fusarium culmorum; 50 ml L^-1, Day 4",0 mm
same,Level of Radial Growth (mm) of F. culmorum,"Fusarium culmorum; 50 ml L^-1, Day 5",0 mm
same,Level of Radial Growth (mm) of F. culmorum,"Fusarium culmorum; 50 ml L^-1, Day 6",0 mm
same,Level of Radial Growth (mm) of F. culmorum,"Fusarium culmorum; 200µl L^-1, Day 1",0 mm
same,Level of Radial Growth (mm) of F. culmorum,"Fusarium culmorum; 200µl L^-1, Day 2",0 mm
same,Level of Radial Growth (mm) of F. culmorum,"Fusarium culmorum; 200µl L^-1, Day 3",0 mm
same,Level of Radial Growth (mm) of F. culmorum,"Fusarium culmorum; 200µl L^-1, Day 4",1 mm
same,Level of Radial Growth (mm) of F. culmorum,"Fusarium culmorum; 200µl L^-1, Day 5",2 mm
same,Level of Radial Growth (mm) of F. culmorum,"Fusarium culmorum; 200µl L^-1, Day 6",6 mm
same,Level of Radial Growth (mm) of F. culmorum,"Fusarium culmorum; 400µl L^-1, Day 1",0 mm
same,Level of Radial Growth (mm) of F. culmorum,"Fusarium culmorum; 400µl L^-1, Day 2",0 mm
same,Level of Radial Growth (mm) of F. culmorum,"Fusarium culmorum; 400µl L^-1, Day 3",0 mm
same,Level of Radial Growth (mm) of F. culmorum,"Fusarium culmorum; 400µl L^-1, Day 4",1 mm
same,Level of Radial Growth (mm) of F. culmorum,"Fusarium culmorum; 400µl L^-1, Day 5",2 mm
same,Level of Radial Growth (mm) of F. culmorum,"Fusarium culmorum; 400µl L^-1, Day 6",6 mm
same,LDSO,Rabbit,>5000 mg·kg
same,sensitization,human volunteers,no sensitization
same,death of mealworms,"mealworms, T.molibr; concentration 10-1, slightly larger individuals, moulted after two days",did not die
same,death of mealworms,"mealworms, T.molibr; concentration printed 10-7",did die
